Measurements: patent US20210009950A1, “ANGIOGENESIS-INDUCING METHOD USING NEURAL STEM CELL” (MEDINNO INC., priority 2018, published 2021)

Experiments:
MCP-1 = assay type: cell-based, human
Groα = assay type: cell-based, human

[Cl-].[Cl-].[Co+2] [CoCl2]
amount of MCP-1 at 24 hours after CoCl2 treatment (MCP-1): increased in proportion to the concentration
amount of MCP-1 at CoCl2 300 μM or more compared to 100 and 200 μM (MCP-1): reduced
expression level of MCP-1, another 24 hours after medium replaced with DMEM/F12 (MCP-1): highest in the case of treatment of 100 μM CoCl2
expression of MCP-1 (MCP-1): increased
amount of Groα at 24 hours after CoCl2 treatment (Groα): increased in a concentration-dependent manner
amount of Groα at CoCl2 200 μM or more compared to 100 μM (Groα): reduced
amount of Groα, another 24 hours after medium replaced with DMEM/F12 (Groα): highest when 100 μM CoCl2 was treated
expression of Gro (Groα): increased
CoCl2 concentration giving highest Groα at 24 hours after treatment (Groα; 24 hours): 500 µM
